Experimental findings from paper PMC9101869, “5,2′-Dibromo-2,4′,5′-trihydroxydiphenylmethanone Inhibits LPS-Induced Vascular Inflammation by Targeting the Cav1 Protein” (Molecules, 2022) are described below.

The target of the experiment is T1, Cav1 (Homo sapiens, UniProt Q03135).
T1 construct: commercial human recombinant Cav1 (Cloud-Clone Corp.); biotinylated for BLI
T1 sequence (Q03135 2-178): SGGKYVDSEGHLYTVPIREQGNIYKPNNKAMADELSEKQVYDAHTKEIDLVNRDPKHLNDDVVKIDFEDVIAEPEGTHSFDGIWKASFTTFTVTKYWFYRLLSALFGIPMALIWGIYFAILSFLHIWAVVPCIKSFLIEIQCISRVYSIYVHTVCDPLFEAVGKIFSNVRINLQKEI
Kind of experiment: intrinsic fluorescence quenching, double logarithmic fit. The class given is binding. As to conditions: 298 K; Cav1 5.0 × 10^−9 mol/L; excitation 280 nm; n fitted as free exponent; read-out: Kb(L.mol^-1) (converted). From the text:
intrinsic fluorescence quenching, double logarithmic fit on Cav1

In the case of `O=C(c1cc(Br)ccc1O)c1cc(O)c(O)cc1Br` [TDD, 5,2′-dibromo-2,4′,5′-trihydroxydiphenylmethanone], the Kd is 917 pM.
